Source: the supplement of paper PMC11368000

Key:
Details in all cases: exposure time: 90 min
11235 [1] = donor line of iPSC-derived cardiomyocytes; assay: POD (EC05) for decrease in beat frequency (negative chronotrope) vs vehicle; higher = less potent (higher point of departure)
Method: (§1)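 Human iPSC-derived cardiomyocytes from 16 donors were exposed for 90 min at 37 °C to each PFAS at 0.1, 1, 10 and 100 µM in 0.5% DMSO, 384-well plates. Kinetic Ca2+ flux (FLIPR) and Hoechst nuclei counts were normalised to vehicle wells and fitted with a hierarchical Bayesian Hill model to give donor-specific PODs: EC05 for beat-rate increase or decrease and for decay-to-rise ratio increase (QT proxy), EC95 for peak-frequency loss (asystole), EC10 for total cell number loss. 0.03 µM is the lower bound.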

1368 [2] = donor line of iPSC-derived cardiomyocytes; assay: as above
Method: as §1

1531 = donor line of iPSC-derived cardiomyocytes; assay: as above
Method: as §1

30171 [3] = donor line of iPSC-derived cardiomyocytes; assay: as above
Method: as §1

1083 [4] = donor line of iPSC-derived cardiomyocytes; assay: as above
Method: as §1

1434 [5] = donor line of iPSC-derived cardiomyocytes; assay: as above
Method: as §1

1518 [6] = donor line of iPSC-derived cardiomyocytes; assay: as above
Method: as §1

1118 [7] = donor line of iPSC-derived cardiomyocytes; assay: as above
Method: as §1

11235 [8] = assay: POD (EC10) for decrease in total cell number (cytotoxicity) vs vehicle; higher = less potent (higher point of departure)
Method in brief: (§2)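 Human iPSC-derived cardiomyocytes from 16 donors were cultured 14 days in 384-well plates, then exposed for 90 min at 37 °C to 0.1, 1, 10 and 100 µM (final, 0.5% DMSO). After the Ca2+ flux read, cells were stained 15 min with Hoechst 33342 (2.2 µg/mL) and MitoTracker Orange and imaged at 10× on an ImageXpress Micro Confocal. Nuclei were counted per field in MetaXpress. Donor-specific cytotoxicity points of departure came from hierarchical Bayesian Hill fits to vehicle-normalised counts, using a 10% decrease.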

1368 [9] = assay: as above
Method in brief: as §2

1565 = donor line of iPSC-derived cardiomyocytes; assay: as above
Method in brief: as §2

30171 [10] = assay: as above
Method in brief: as §2

1535 = donor line of iPSC-derived cardiomyocytes; assay: as above
Method in brief: as §2

1516 = donor line of iPSC-derived cardiomyocytes; assay: as above
Method in brief: as §2

20084 = donor line of iPSC-derived cardiomyocytes; assay: as above
Method in brief: as §2

1083 [11] = assay: as above
Method in brief: as §2

1392 = donor line of iPSC-derived cardiomyocytes; assay: as above
Method in brief: as §2

1434 [12] = assay: as above
Method in brief: as §2

1518 [13] = assay: as above
Method in brief: as §2

1118 [14] = assay: as above
Method in brief: as §2

SMILES | POD vs vehicle 11235 [1] [µM] | POD vs vehicle 1368 [2] [µM] | POD vs vehicle 1531 [µM] | POD vs vehicle 30171 [3] [µM] | POD vs vehicle 1083 [4] [µM] | POD vs vehicle 1434 [5] [µM] | POD vs vehicle 1518 [6] [µM] | POD vs vehicle 1118 [7] [µM] | POD vs vehicle 11235 [8] [µM] | POD vs vehicle 1368 [9] [µM] | POD vs vehicle 1565 [µM] | POD vs vehicle 30171 [10] [µM] | POD vs vehicle 1535 [µM] | POD vs vehicle 1516 [µM] | POD vs vehicle 20084 [µM] | POD vs vehicle 1083 [11] [µM] | POD vs vehicle 1392 [µM] | POD vs vehicle 1434 [12] [µM] | POD vs vehicle 1518 [13] [µM] | POD vs vehicle 1118 [14] [µM]
O=C(O)C=CC(F)(C(F)(F)F)C(F)(F)F [3-(Perfluoroisopropyl)-2-propenoic_acid] | > 100 | > 100 | > 100 | > 100 | > 100 | > 100 | > 100 | > 100 | > 100 | > 100 | > 100 | > 100 | > 100 | > 100 | > 100 | > 100 | > 100 | > 100 | > 100 | > 100
O=C(O)CCC(F)(F)C(F)(F)C(F)(F)C(F)(F)C(F)(F)C(F)(F)C(F)(F)F [3-Perfluoroheptylpropanoic_acid] | 20.2 | > 100 | 80.7 | 24.9 | > 100 | 21 | > 100 | 13.8 | > 100 | > 100 | > 100 | > 100 | > 100 | > 100 | > 100 | > 100 | > 100 | > 100 | > 100 | > 100
O=C(O)CCC(F)(F)C(F)(F)C(F)(F)F [3:3 Fluorotelomer carboxylic acid] | > 100 | > 100 | > 100 | > 100 | > 100 | > 100 | > 100 | > 100 | > 100 | > 100 | > 100 | > 100 | > 100 | > 100 | > 100 | > 100 | > 100 | > 100 | > 100 | > 100
O=C(CC(=O)C(F)(F)C(F)(F)F)C(F)(F)F [3H,3H-Perfluoro-2,4-hexanedione] | 24.9 | > 100 | > 100 | 23.5 | > 100 | 22.6 | > 100 | 24.6 | > 100 | > 100 | > 100 | > 100 | > 100 | 74.4 | > 100 | > 100 | 93.5 | 21.9 | > 100 | 25.1
OCCC(F)(F)C(F)(F)C(F)(F)C(F)(F)F [4:2 Fluorotelomer alcohol] | > 100 | > 100 | > 100 | > 100 | > 100 | > 100 | > 100 | 22.9 | > 100 | > 100 | > 100 | – | > 100 | > 100 | > 100 | > 100 | > 100 | > 100 | > 100 | > 100
OCC(F)(F)C(F)(F)C(F)(F)C(F)(F)C(F)(F)C(F)(F)F [6:1 Fluorotelomer alcohol] | 21.5 | 74.9 | > 100 | 24.3 | 24.6 | 21.9 | > 100 | 0.554 | > 100 | > 100 | > 100 | > 100 | > 100 | – | > 100 | > 100 | > 100 | 13.1 | – | 1.53
OCC(F)(F)OC(F)(F)C(F)(F)OC(F)(F)C(F)(F)OC(F)(F)F [Fluorinated_triethylene_glycol_monomethyl_ether] | > 100 | > 100 | > 100 | > 100 | > 100 | 25.3 | > 100 | 2.52 | > 100 | > 100 | > 100 | > 100 | > 100 | > 100 | 0.358 | > 100 | 2.04 | – | – | > 100
CN(CCO)S(=O)(=O)C(F)(F)C(F)(F)C(F)(F)C(F)(F)C(F)(F)C(F)(F)C(F)(F)C(F)(F)F [N-Methyl-N-(2-hydroxyethyl)perfluorooctanesulfonamide] | 35.4 | > 100 | > 100 | 20.2 | 16.9 | 42.2 | > 100 | – | > 100 | > 100 | > 100 | > 100 | > 100 | > 100 | > 100 | > 100 | > 100 | > 100 | > 100 | > 100
O=C(O)C(F)(F)C(F)(F)C(F)(F)C(F)(F)C(=O)O [Octafluoroadipic_acid] | > 100 | > 100 | > 100 | > 100 | > 100 | > 100 | > 100 | > 100 | > 100 | > 100 | – | > 100 | > 100 | > 100 | > 100 | > 100 | 54.6 | 23.3 | – | > 100
O=C(O)C(F)(F)C(F)(F)C(F)(F)C(F)(F)C(F)(F)C(F)(F)F [Perfluoroheptanoic_acid] | 20.6 | > 100 | 78.7 | > 100 | > 100 | > 100 | > 100 | 39.8 | > 100 | > 100 | > 100 | > 100 | > 100 | – | 56.8 | > 100 | > 100 | – | 23.6 | > 100
